Source: patent EP0249390A2, “Synthetic peptides related to the HIV glycoprotein gp 120” (Pert, Candace B., priority 1986, dated 1987)

Test: activity of peptide, test not specified

CYS-THR-THR-ASN-TYR-THR-CYS (CTTNYTC; printed: CYS-THR-THR-ASN-TYR-THR-CYS) [seven amino acid peptide]
activity: active
